According to patent publication US8664221B2 (Santen Pharmaceutical Co., Ltd., priority 2008, dated 2014):

Columns and labels:
[1] = system: IL-6 production induced by lipopolysaccharide (LPS) in human corneal epithelial cells (HCE-T); experiment: Inhibition of LPS-induced IL-6 production in human corneal epithelial cells (GR agonist activity); type: cell-based; conditions: Corneal epithelial cell, 10 μL of 100 μM test compound solution per well, 4 hours incubation, efficacy relative to DEX
Experimental: In order to evaluate a GR agonist activity of the present compound, the inhibitory effects on the IL-6 production induced by lipopolysaccharide (LPS) in human corneal epithelial cells. IL-6 levels in the conditioned medium were measured using the HTRF human IL-6 Kit (boehringer-Ingelheim, Cat No. 62IL6PEB), and the procedure was carried out according to the protocol attached to the kit. Hereinafter, the specific method will be described.
LPS solution: After LPS was dissolved in phosphate buffer solution (hereinafter referred to as PBS(−)), the resulting solution was diluted with 10% FBS-DMEM/F12 medium, whereby a 1 μg/mL LPS solution was prepared.
After a test compound was dissolved in dimethylsulfoxide (hereinafter referred to as DMSO), the resulting solution was diluted with 10% FBS-DMEM/F12 medium, whereby a 100 μM test compound solution was prepared. A 100 μM DEX solution was prepared by the same method, and the inhibitory ratio of IL-6 production of DEX was evaluated to use for calculating efficacy (% DEX).
Used cell: SV40-immortalized human corneal epithelial cells (HCE-T) (RIKEN)
1) HCE-T cells were harvested, and seeded at 2.0×10^4 cells/0.1 mL/well in a 96-well plate.
2) After incubation overnight, the medium was removed and a 80 μL of new 10% FBS-DMEM/Ham's F12 medium was added into each well.
3) A 10 μL of test compounds solution was added into each well.
4) A 10 μL of LPS solution was added into each well.
5) As a negative control, a 10 μL of 10% FBS-DMEM/Ham's F12 medium was added into each well instead of a test compound solution and a LPS solution.
6) As a positive control, a 10 μL of 10% FBS-DMEM/Ham's F12 medium containing 1% DMSO was added into each well instead of a test compound solution.
7) After 4 hours incubation, supernatants were collected and IL-6 levels in the supernatants were quantitated using the HTRF human IL-6 Kit.
8) The inhibition ratio of IL-6 production (%) was calculated according to the following equation.
The inhibition ratio of IL-6 production (%) was calculated according to the following equation. The inhibition ratio of IL-6 production (%)=100×{1−(IL-6 level in each group−mean value of IL-6 level in negative control)/(mean value of IL-6 level in positive control−mean value of IL-6 level in negative control)} (%)
Furthermore, the inhibition ratio of IL-6 production (efficacy (% DEX)) was also calculated according to the following equation. Efficacy(% DEX)=100×{(mean value of IL-6 inhibition in compound-treated group)/(mean value of IL-6 inhibition in DEX-treated group)} (%) (Results and Discussion)

[2] = system: allergic conjunctivitis model in mice; experiment: Inhibitory effect on vascular hyper-permeability in allergic conjunctivitis model; type: in vivo; conditions: male BALB/c mice, ovalbumin-sensitized; 1% (W/V) suspension instilled 15 min, 1 hr and 3 hrs before ovalbumin; Evans blue dye leakage; mean of 6 eyes
Experimental: In order to evaluate anti-allergic effect of the present compound, the inhibitory effect on the vascular hyper-permeability in allergic conjunctivitis model in mice was examined. This effect was calculated based on dye leakages of vehicle-treated group (control group) and test compound-treated group.
By adding 0.5% polysorbate 80/saline to the test compound, a 1% (W/V) test compound suspension was prepared.
1) Ovalbumin absorbed on aluminum hydroxide gel was dissolved in saline (20 μg ovalbumin/mL), and male BALB/c mice, 6 weeks old, were actively sensitized to the antigen by intraperitoneal injections of 500 μL of it.
2) On the 6th day from sensitization, sensitized mice were boosted by additional intraperitoneal injections of 500 μL ovalbumin absorbed on aluminum hydroxide gel (20 μg ovalbumin/mL).
3) On the 11th day, 12th day, 13th day, 14th day and 15th day from the first sensitization, allergic conjunctivitis were induced by instillations to the right eyes of the mice of […] of 50% glycerol solution containing 15% (W/V) ovalbumin.
4) […] of test compound suspension per eye was instilled to the right eye of the above mice 15 min, 1 hr and 3 hrs before ovalbumin instillation (three times) on the 15th day from sensitization. In vehicle-treated group (control group), the mice were instilled with 0.5% polysorbate 80/saline in substitution for test compound suspension.
5) Just before ovalbumin instillation on the 15th day from sensitization, all animals received a tail intravenous injection of 0.1% Evans blue dye. The right periocular tissues of the mice, which were the leaked parts of dye, were collected 30 min after ovalbumin instillation. The dye was extracted from the tissues with the dye extraction liquid. Then the absorbance of the dye extract was measured. The dye leakage was calculated from the absorbance value, and the inhibition ratio of the vascular hyper-permeability of test compound-treated group was calculated according to calculation equation 1. The inhibition ratio of the vascular hyper-permeability of test compound-treated group (%)=(1−Ax/Ao)×100 (Calculation Equation 1) • Ao: Dye leakage in vehicle-treated group (control group) • Ax: Dye leakage in test compound-treated group (Test Results and Discussion)

[3] = system: choroidal neovascularization (CNV) model in rats; experiment: Laser induced choroidal neovascularization model; type: in vivo; conditions: Brown Norway male rats; 1% (w/v) eye drops four times a day or 20 mg/mL subconjunctival injection (route not given); fluorescein angiography 7 days after laser; mean of 7-8 eyes
Experimental: The choroidal neovascularization (CNV) model in rats is known as one of the popular methods for evaluating the CNV inhibitory effect of drugs. This method is reported in Graefe's Arch. Cli. Exp. Ophthalmol., 235, 313-319 (1997). According to this method, the CNV examinations were performed to evaluate the CNV inhibitory effect of test compounds by comparing the incidence rates of CNV in vehicle group (control group) with test compound-treated groups.
For eye drop administration, a 1% (w/v) test compound suspension was prepared by adding 0.5% polysorbate 80/saline to the test compound. For subconjunctival injection, a 20 mg/mL test compound suspension was prepared by adding 0.5% hydrogenated castor oil/saline to the test compound.
1) Brown Norway male rats (7-8 weeks) were anesthetized with intramuscular injection (1 mL/kg) of the mixed solution (5% ketamine HCl:2% xylazine HCl=7:1).
2) After mydriasis using tropicamide phenylephrine hydrochloride eye drops (trade name Mydrin P), laser photocoagulation of bruch's membrane in rats was performed with krypton laser photocoagulation machine. Laser irradiation was performed at 8 points per eye avoiding thick retinal blood vessels in ocular fundus and focusing on the depth of retina. The conditions were 100 μm spot size, 100 mW power, 0.1 second duration.
3) After laser photocoagulation, photographs of ocular fundus were taken and the laser photocoagulation (laser irradiation) points were confirmed.
1) In case of eye drops administration, a test compound suspension was administrated four times a day from laser irradiation day (the 1st day) to the 8th day. In case of subconjunctival injection, a 50 μL test compound suspension was injected into conjunctivae just after laser irradiation.
2) In vehicle group (control group), 0.5% polysorbate 80/saline or 0.5% hydrogenated castor oil/saline was used instead of a test compound suspension. And the test was performed according to the method 1).
1) 7 days after laser irradiation, 0.1 mL of 10% fluorescein was injected into rat tail vein and fluorescein angiography was performed.
2) When the fluorescent leakage was not detected in the fluorescent angiography, the spot was judged to be a negative spot. When the fluorescent leakage was detected, the spot was judged to be a positive spot. When the fluorescent leakage was detected as a little leakage, two spots were counted as one positive spot.
3) The neovascular incidence rate was calculated according to the equation 1. According to the equation 2, the ratio of neovascular incidence rate in test compound group to vehicle group was calculated. Neovascular incidence rate (%)=(Positive spots/all spots)×100 (Equation 1) Angiogenic inhibition ratio in test compound group (%)=(1−Ax/Ao)×100 (Equation 2)
Ao: Neovascular incidence rate in vehicle group (control group)
Ax: Neovascular incidence rate in test compound group

[4] = system: carrageenan-induced paw edema model in rats; experiment: Carrageenan-induced paw edema model; type: in vivo; conditions: female Lewis rat; 10 mg/kg oral, 30 minutes before carrageenan; paw volume 3 hr after injection; read-out: Inhibition ratio of paw edema (%)
Experimental: The inhibitory effect for paw edema using carrageenan-induced paw edema model in rats is known as one of the general methods for testing the inhibitory effect on inflammation on the joint and the like. Therefore, the inhibitory effect of the present compound for paw edema was carried out, the inhibition rate of paw edema was calculated, and then the anti-inflammatory effect of the present compound was evaluated based on the rate. The concrete method of the test is described below.
A 2 mg/mL test compound suspension was prepared by adding 1% methyl cellulose (base) to the test compound.
1) The weight and right hind paw volume of female Lewis rat (8˜10 weeks) were measured before drug administration.
2) The test compound suspension was administered at 10 mg/kg to the test compound group. Meanwhile, 1% methyl cellulose was administered orally at 5 mL/kg to the sham-operation group and vehicle group (control group).
3) After 30 minutes from oral administration, 0.1 mL of a 1% w/v carrageenan/distilled water solution was subcutaneously injected into right foot pad. 0.1 mL of distilled water was subcutaneously injected for sham-operation group.
4) The right hind paw volume was measured 3 hr after injection of carrageenan or distilled water.
(Formulation Concerning Estimation of Drug Activity) The increase ratio of paw volume (%)=100×(right hind paw volume 3 hr after injection of carrageenan or distilled water (mL)−right hind paw volume before the test compound administration (mL))/right hind paw volume before the test compound administration (mL) (Calculation Equation 1) The inhibition ratio of paw edema (%)=100−100×(the increase ratio of paw volume of each test compound group (%)−the increase ratio of paw volume of sham-operation group (%))/(the increase of paw volume of vehicle group (%)−the increase of paw volume of sham-operation group (%)) (Calculation Equation 2) (Test Results and Discussion)

With `COc1cc(OS(C)(=O)=O)ccc1-c1ccc2c(c1COc1cc(F)ccc1C)N(C)C(=O)C(C)(C)N2` [Compound No. 1-1, 8-(5-Fluoro-2-methylphenoxymethyl)-7-(2-methoxy-4-methylsulfonyloxyphenyl)-1,3,3-trimethyl-3,4-dihydro-1H-quinoxalin-2-one] the Emax [1] was 92%, the “The inhibition ratio of the vascular hyper-permeability (%)” value [2] was 36% and the “Angiogenic inhibition ratio (%)” value [3] was 31%.

`COc1cc(OS(=O)(=O)C2CC2)ccc1-c1ccc2c(c1COc1cc(F)ccc1C)N(C)C(=O)C(C)(C)N2` [Compound No. 1-13, 7-(4-Cyclopropylsulfonyloxy-2-methoxyphenyl)-8-(5-fluoro-2-methyl-phenoxymethyl)-1,3,3-trimethyl-3,4-dihydro-1H-quinoxalin-2-one] was tested, and the Emax [1] was 100%, the “Angiogenic inhibition ratio (%)” value [3] was 38% and the inhibition in vivo at 10 mg/kg [4] was 67%.

With `CCCS(=O)(=O)Oc1ccc(-c2ccc3c(c2COc2cc([N+](=O)[O-])ccc2C)N(C)C(=O)C(C)(C)N3)c(OC)c1` [Compound No. 1-38, 7-(2-Methoxy-4-propylsulfonyloxyphenyl)-8-(2-methyl-5-nitrophenoxy-methyl)-1,3,3-trimethyl-3,4-dihydro-1H-quinoxalin-2-one] the Emax [1] was 94%, the “Angiogenic inhibition ratio (%)” value [3] was 33% and the inhibition in vivo at 10 mg/kg [4] was 50%.

With `COc1cc(OS(=O)(=O)C2CCCC2)ccc1-c1ccc2c(c1CNc1cc(F)ccc1C)N(C)C(=O)C(C)(C)N2` [Compound No. 1-43, 7-(4-cyclopentylsulfonyloxy-2-methoxyphenyl)-8-(5-fluoro-2-methyl-phenylaminomethyl)-1,3,3-trimethyl-3,4-dihydro-1H-quinoxalin-2-one] the Emax [1] was 82% and the “Angiogenic inhibition ratio (%)” value [3] was 18%.

In the case of `COc1ccccc1NCc1c(-c2ccc(OS(=O)(=O)C3CC3)cc2OC)ccc2c1N(C)C(=O)C(C)(C)N2` [Compound No. 2-2, 7-(4-Cyclopropylsulfonyloxy-2-methoxyphenyl)-8-(2-methoxy-phenylaminomethyl)-1,3,3-trimethyl-3,4-dihydro-1H-quinoxalin-2-one], the Emax [1] is reported as 86%, the “Angiogenic inhibition ratio (%)” value [3] is reported as 41% and the inhibition in vivo at 10 mg/kg [4] is reported as 51%.
